Test results taken from paper PMC5622171 (Nature Communications, 2017).
“Also recorded” adds a separate entry of the source.

Columns and labels:
LXRβ = LXRβ (Homo sapiens, UniProt P55055); test: GeneBLAzer NR-UAS-bla HEK 293 T assay; type: cell-based; details: antagonistic mode; only at concentrations higher than 5 µM
hPXR with SRC-1 = target: T1, hPXR with SRC-1 (Homo sapiens, UniProt O75469); test: Mammalian two-hybrid assay; type: cell-based; details: LS180 cells; SPA70 10 µM, SJB7 4 µM
T1 construct: expressed in transfected cells; host or cells: LS180
From the text: (§1) The mammalian two-hybrid assay method has been described previously. Briefly, the CheckMate mammalian two-hybrid system (Promega) was used to evaluate the association between hPXR and its co-regulators. LS180 cells were co-transfected with an hPXR plasmid (pACT-hPXR, pACT-hPXRM429A or pACT-hPXRF429A), a coregulator plasmid (pBIND-SRC-1, pBIND-TIF2, pBIND-SMRTτ [amino acids 2077–2471], or pBIND-mNCoR [amino acids 1958–2401]), and a GAL4 firefly luciferase reporter plasmid (pG5-luc). The Renilla luciferase is constitutively expressed from the pBIND vector, and served as an internal transfection control. The activity of the firefly and Renilla luciferase was measured by using the Dual-Glo Luciferase Assay (Promega), and the relative luciferase activity of pG5-luc was determined by normalizing the activity of firefly luciferase to that of Renilla luciferase.

hPXR with TIF2 = target: T2, hPXR with TIF2 (Homo sapiens, UniProt O75469); test: Mammalian two-hybrid assay; type: cell-based; details: LS180 cells; SPA70 10 µM, SJB7 4 µM
T2 construct: expressed in transfected cells; host or cells: LS180
From the text: as §1

hPXR = target: T3, hPXR (Homo sapiens, UniProt O75469); test: hPXR transactivation assay, HepG2 stable cell line, antagonistic mode; details: SPA70 concentration of 10 μM; all rifampicin concentrations tested
T3 sequence (O75469 1-434): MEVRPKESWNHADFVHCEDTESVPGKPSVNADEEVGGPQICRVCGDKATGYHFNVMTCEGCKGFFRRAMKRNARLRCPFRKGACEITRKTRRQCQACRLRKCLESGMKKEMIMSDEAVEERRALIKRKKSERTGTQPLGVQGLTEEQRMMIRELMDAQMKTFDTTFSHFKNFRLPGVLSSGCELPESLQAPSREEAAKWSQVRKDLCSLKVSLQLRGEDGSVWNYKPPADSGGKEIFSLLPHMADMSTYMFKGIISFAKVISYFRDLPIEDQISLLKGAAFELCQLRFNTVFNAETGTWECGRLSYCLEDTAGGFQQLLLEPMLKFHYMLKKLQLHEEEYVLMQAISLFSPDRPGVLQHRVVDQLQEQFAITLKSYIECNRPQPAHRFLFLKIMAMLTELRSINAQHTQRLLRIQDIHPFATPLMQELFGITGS

LXRβ, sequence (P55055 222-460 limits assumed): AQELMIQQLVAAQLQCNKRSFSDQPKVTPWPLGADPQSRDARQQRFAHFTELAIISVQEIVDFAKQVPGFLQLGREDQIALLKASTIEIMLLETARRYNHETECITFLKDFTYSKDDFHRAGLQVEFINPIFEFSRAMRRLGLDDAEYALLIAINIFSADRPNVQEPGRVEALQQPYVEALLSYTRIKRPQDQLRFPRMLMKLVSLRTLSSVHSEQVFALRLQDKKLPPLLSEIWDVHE
T1 sequence (Q15788 whole entry partner, one chain of several): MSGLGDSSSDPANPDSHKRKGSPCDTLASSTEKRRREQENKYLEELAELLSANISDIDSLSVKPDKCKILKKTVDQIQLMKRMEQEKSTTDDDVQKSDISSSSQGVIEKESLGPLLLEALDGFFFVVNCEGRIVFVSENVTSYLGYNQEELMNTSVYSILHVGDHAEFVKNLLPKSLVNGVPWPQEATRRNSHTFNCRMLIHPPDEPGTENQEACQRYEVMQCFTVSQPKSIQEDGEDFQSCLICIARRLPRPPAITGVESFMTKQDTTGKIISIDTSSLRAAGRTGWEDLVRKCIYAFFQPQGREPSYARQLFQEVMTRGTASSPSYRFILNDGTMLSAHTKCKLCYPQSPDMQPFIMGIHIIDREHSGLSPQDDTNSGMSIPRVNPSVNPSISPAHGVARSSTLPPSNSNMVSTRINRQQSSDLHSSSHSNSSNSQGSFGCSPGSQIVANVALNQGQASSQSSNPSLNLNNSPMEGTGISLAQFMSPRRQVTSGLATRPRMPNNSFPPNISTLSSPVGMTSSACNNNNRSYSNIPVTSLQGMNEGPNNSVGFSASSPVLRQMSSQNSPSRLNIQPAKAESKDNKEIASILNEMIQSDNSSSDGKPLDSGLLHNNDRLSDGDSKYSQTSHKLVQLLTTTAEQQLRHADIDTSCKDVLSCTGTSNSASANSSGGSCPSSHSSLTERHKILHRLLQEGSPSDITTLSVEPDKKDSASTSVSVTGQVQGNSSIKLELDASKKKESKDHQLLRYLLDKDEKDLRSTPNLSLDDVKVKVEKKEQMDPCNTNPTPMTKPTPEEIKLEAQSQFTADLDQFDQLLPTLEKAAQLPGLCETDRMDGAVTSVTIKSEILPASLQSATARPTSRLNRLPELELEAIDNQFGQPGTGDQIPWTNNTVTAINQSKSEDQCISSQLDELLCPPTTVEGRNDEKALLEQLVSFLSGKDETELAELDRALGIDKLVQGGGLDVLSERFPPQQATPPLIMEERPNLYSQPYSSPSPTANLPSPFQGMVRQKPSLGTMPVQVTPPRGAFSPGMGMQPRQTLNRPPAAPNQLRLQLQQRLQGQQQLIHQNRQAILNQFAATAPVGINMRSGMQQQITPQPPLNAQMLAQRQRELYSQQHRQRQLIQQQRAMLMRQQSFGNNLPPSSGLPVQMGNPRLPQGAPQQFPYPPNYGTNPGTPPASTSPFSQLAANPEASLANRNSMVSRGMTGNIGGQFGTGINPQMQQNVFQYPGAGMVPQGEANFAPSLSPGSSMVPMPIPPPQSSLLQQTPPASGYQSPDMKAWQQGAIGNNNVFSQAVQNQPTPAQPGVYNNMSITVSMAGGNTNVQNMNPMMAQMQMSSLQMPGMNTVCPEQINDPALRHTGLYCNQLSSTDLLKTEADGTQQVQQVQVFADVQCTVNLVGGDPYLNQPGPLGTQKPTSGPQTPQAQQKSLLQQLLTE
T2 sequence (Q15596 whole entry partner, one chain of several): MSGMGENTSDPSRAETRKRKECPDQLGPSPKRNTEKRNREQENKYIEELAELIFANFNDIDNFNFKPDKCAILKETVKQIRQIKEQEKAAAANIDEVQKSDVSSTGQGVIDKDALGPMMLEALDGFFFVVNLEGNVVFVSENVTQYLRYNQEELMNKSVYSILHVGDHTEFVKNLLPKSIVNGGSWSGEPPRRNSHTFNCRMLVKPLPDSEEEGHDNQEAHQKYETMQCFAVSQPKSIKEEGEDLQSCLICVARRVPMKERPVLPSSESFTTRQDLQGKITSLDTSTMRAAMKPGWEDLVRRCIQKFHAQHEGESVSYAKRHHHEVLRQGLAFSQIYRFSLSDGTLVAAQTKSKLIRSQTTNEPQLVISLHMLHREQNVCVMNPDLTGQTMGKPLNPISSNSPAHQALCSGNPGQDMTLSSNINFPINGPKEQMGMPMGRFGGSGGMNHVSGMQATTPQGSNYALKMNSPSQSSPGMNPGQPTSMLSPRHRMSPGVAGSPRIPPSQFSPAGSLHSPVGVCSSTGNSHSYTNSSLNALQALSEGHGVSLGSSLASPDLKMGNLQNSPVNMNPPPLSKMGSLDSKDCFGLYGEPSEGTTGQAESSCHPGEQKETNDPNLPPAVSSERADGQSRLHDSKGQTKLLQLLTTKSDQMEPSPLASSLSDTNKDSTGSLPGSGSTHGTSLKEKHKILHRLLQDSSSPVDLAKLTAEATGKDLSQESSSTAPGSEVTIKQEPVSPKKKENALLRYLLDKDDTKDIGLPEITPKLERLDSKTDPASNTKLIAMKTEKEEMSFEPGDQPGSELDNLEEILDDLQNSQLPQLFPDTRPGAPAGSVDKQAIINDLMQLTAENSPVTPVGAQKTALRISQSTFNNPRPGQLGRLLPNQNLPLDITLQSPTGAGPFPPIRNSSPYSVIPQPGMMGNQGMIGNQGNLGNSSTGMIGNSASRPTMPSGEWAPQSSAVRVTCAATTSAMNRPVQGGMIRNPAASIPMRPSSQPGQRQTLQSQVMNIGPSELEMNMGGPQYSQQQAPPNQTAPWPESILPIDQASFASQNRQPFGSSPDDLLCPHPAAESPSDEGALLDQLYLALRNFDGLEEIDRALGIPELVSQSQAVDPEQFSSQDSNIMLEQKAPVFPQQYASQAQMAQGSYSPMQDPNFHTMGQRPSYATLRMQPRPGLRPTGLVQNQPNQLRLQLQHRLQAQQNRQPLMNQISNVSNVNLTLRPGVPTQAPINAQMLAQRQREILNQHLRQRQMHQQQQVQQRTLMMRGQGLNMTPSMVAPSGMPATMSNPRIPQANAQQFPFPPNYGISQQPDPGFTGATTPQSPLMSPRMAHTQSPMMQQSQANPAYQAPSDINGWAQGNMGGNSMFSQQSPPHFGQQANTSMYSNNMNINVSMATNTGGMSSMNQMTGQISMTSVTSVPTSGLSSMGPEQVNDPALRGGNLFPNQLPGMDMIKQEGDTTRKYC

COc1ccc(OC)c(-n2nnc(S(=O)(=O)c3ccc(C(C)(C)C)cc3)c2C)c1 [SPA70]
Effect on agonistic activity of T0901317 on LXRβ (LXRβ): weakly promoted the agonistic effect of T0901317 on LXRβ; also recorded: marginally increased the agonistic activity of T0901317 on LXRβ
Increase of association of hPXR with SRC-1 (hPXR with SRC-1): did not affect
Increase of association of hPXR with TIF2 (hPXR with TIF2): did not affect
Effect on rifampicin-induced hPXR activation (hPXR): completely blocked the activity of rifampicin
